In patent US4954502A, “1-indolyalkyl-4-(substituted-pyridinyl)piperazines” (Bristol-Myers Squibb Company, priority 1989, dated 1990):
pIC50: −log10 of the molar value. Counter-ions that a name gives are not always drawn.

Biological target: T1, serotonin uptake (Rattus norvegicus, UniProt P31652)
T1 construct: from tissue
Test: Inhibition of serotonin uptake (in vitro): inhibition of synaptosomal reuptake of tritiated serotonin
Format: biochemical
Procedure: Determination of endogenous monoaminergic re-uptake inhibition values both for serotonin and norepinephrine was accomplished using test methods described by P. Skolnick, et al.. Br. J. Pharmacology (1985), 86, pp. 637-644; with only minor modifications. In vitro IC50 (nM) test values were determined for representative compounds of Formula I based on their inhibition of synaptosomal reuptake of tritiated serotonin. Test data IC50 values lower than 500 nM are considered to reflect activity as an inhibitor of serotonin reuptake. Compounds with Ic50 values lower than 1OO nM comprise preferred compounds.

T1 sequence (P31652 whole entry): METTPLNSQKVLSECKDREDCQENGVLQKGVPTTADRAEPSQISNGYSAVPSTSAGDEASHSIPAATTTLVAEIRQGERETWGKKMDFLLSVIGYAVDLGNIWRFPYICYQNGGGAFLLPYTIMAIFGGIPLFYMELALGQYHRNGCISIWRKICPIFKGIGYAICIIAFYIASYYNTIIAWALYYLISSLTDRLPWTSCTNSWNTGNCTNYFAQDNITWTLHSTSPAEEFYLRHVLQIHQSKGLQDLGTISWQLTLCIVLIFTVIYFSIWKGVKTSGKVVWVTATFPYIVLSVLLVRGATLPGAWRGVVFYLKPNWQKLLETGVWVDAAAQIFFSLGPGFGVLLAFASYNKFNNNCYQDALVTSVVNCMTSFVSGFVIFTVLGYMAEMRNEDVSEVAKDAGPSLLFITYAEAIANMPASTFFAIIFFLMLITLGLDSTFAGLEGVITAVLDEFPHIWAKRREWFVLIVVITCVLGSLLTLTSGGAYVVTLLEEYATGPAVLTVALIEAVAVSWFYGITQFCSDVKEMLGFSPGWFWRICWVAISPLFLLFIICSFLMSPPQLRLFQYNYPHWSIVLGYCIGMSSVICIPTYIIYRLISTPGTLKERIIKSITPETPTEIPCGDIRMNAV

Compound | pIC50
Clc1cccc(N2CCN(CCc3c[nH]c4ccccc34)CC2)n1 [Example 14, 4-[6-Chloro-2-pyridinyl]-1-[2-(1H-indol-3-yl)-ethyl]piperazine hydrochloride] | 7.13
COc1cccnc1N1CCN(CCc2c[nH]c3ccccc23)CC1 [Example 18, 1-[2-(1H-indol-3-yl)-ethyl]-4-[3-methoxy-2-pyridinyl]-piperazine] | 7.89
COc1ccc2[nH]cc(CCN3CCN(c4cccc(C(F)(F)F)n4)CC3)c2c1 [Example 44] | 6.25
NC(=O)c1ccc2[nH]cc(C3=CCC(N4CCN(c5cccc(Cl)n5)CC4)CC3)c2c1 (stereo not shown) [Example 46] | 7.57
COc1ccc2[nH]cc(C3=CCC(N4CCN(c5cccc(Cl)n5)CC4)CC3)c2c1 (stereo not shown) [Example 23, 3-[4-[4-(6-Chloro-2-pvridinyl)-1-piperazinyl]-1cyclohexen-1-yl]-5-methoxy-1H-indole] | 7.00
COc1ccc(Cl)nc1N1CCN(CCCc2c[nH]c3ccccc23)CC1 [Example 71] | 8.31
Fc1ccc2[nH]cc(CCN3CCN(c4cccc(C(F)(F)F)n4)CC3)c2c1 [Example 43] | 7.14
COc1cccnc1N1CCN(CCCc2cn(C)c3ccccc23)CC1 [Example 50] | 8.43
COc1cccnc1N1C[C@H]2C[C@@H]1CN2CCc1c[nH]c2ccccc12 [Example 26] | 6.97
COc1cccnc1N1CCN(CCCc2c[nH]c3ccccc23)CC1 [Example 20, 1-[3-(1H-indol-3-yl)-propyl]-4-[3-methoxy-2-pyridinyl]piperazine dihydrochloride hydrate] | 8.96
COc1cccnc1N1CCN(CCc2c[nH]c3ccc(Cl)cc23)CC1 [Example 56] | > 9.00
Cn1cc(CCN2CCN(c3cccc(Cl)n3)CC2)c2ccccc21 [Example 55] | 6.90
COc1ccc2c(CCN3CCN(c4ncccc4OC)CC3)c[nH]c2c1 [Example 66] | 7.44
COc1cccnc1N1CCN(CCc2c[nH]c3ccccc23)C(C)C1 (stereo not shown) [Example 64] | > 9.00
Fc1ccc2[nH]cc(C3=CCC(N4CCN(c5cccc(Cl)n5)CC4)CC3)c2c1 (stereo not shown) [Example 70] | 6.85
COc1cccnc1N1C[C@H]2C[C@@H]1CN2CCCc1c[nH]c2ccccc12 [Example 35] | 6.82
Clc1cccc(N2CCN(C3CC=C(c4c[nH]c5ccccc45)CC3)CC2)n1 (stereo not shown) [Example 45] | 7.00
COc1cccnc1N1C[C@@H]2C[C@H]1CN2CCc1c[nH]c2ccccc12 [Example 27] | 7.90
COc1ccc2c(CCN3CCN(c4cccc(Cl)n4)CC3)c[nH]c2c1 [Example 65] | 6.87
COc1cccnc1N1CCN(CCc2c[nH]c3ccccc23)C(C)C1 (stereo not shown) [Example 25] | 8.07
FC(F)(F)c1cccc(N2CCN(CCCCc3c[nH]c4ccccc34)CC2)n1 [Example 32] | 6.59
CC(CCc1c[nH]c2ccccc12)N1CCN(c2cccc(Cl)n2)CC1 (stereo not shown) [Example 67] | 6.85
Clc1cccc(N2CCN(CCCCc3c[nH]c4ccccc34)CC2)n1 [Example 31] | 7.57
COc1ccc2[nH]cc(CCN3CCN(c4ncccc4OC)CC3)c2c1 [Example 38] | 7.96
COc1cccnc1N1CCN(CCc2c[nH]c3ccc(F)cc23)CC1 [Example 39] | 9.70

Compound | pIC50
FC(F)(F)c1cccc(N2CCN(CCCc3c[nH]c4ccccc34)CC2)n1 [Example 30] | 6.72
Clc1cccc(N2C[C@H]3C[C@@H]2CN3CCc2c[nH]c3ccccc23)n1 [Example 29] | 6.97
Fc1ccc2[nH]cc(CCN3CCN(c4cccc(Cl)n4)CC3)c2c1 [Example 41] | 8.55
COc1cc2[nH]cc(CCN3CCN(c4cccc(Cl)n4)CC3)c2cc1OC [Example 48] | 6.90
Clc1cccc(N2CCN(CCCc3c[nH]c4ccccc34)CC2)n1 [Example 19, 1-(6-Chloro-2-pyridinyl)-4-[3-(1H-indol-3-yl)propyl]piperazine hydrochloride] | 7.01
Clc1cccc(N2C[C@@H]3C[C@H]2CN3CCc2c[nH]c3ccccc23)n1 [Example 28] | 7.11
COc1cccnc1N1CCN(CCCCc2c[nH]c3ccccc23)CC1 [Example 21, 1-[4-(1H-indol-3-yl)butyl]-4-(3-methoxy-2-pyridine-1)piperazine dihydrochloride] | 7.24
COc1cccc(N2CCN(CCc3c[nH]c4ccccc34)CC2)n1 [Example 16, 1-[2-(1H-indol-3-yl)-ethyl]-4[6-methoxy-2-pyridinyl-piperazine hydrate] | 7.06
Cn1cc(CCCN2CCN(c3cccc(Cl)n3)CC2)c2ccccc21 [Example 51] | 7.07
COc1ccc2[nH]cc(CCN3CCN(c4cccc(Cl)n4)CC3)c2c1 [Example 40] | 6.75
FC(F)(F)c1ccnc(N2CCN(CCc3c[nH]c4ccccc34)CC2)c1 [Example 37] | 6.41
COc1cccnc1N1CCN(C(C)CCc2c[nH]c3ccccc23)CC1 (stereo not shown) [Example 68] | 7.44
COc1cccnc1N1CCN(CCc2cn(C)c3ccccc23)CC1 [Example 47] | 7.62
COc1cc2[nH]cc(CCN3CCN(c4cccc(C(F)(F)F)n4)CC3)c2cc1OC [Example 69] | 6.32
CC1CN(c2cccc(Cl)n2)CCN1CCCc1c[nH]c2ccccc12 (stereo not shown) [Example 72] | 7.73
FC(F)(F)c1cccnc1N1CCN(CCc2c[nH]c3ccccc23)CC1 [Example 17, 1-[2-(1H-indol-3-yl)-ethyl]-4-[3-trifluoromethyl-2-pyridinyl]piperazine hydrochloride] | 7.43
FC(F)(F)c1cccc(N2CCN(CCc3c[nH]c4ccccc34)CC2)n1 [Example 15, 1-[2-(1H-indol-3-yl)-ethyl]-4-6-trifluoromethyl-2-pyridinyl]piperazine hydrochloride] | 7.14
Clc1ccc(N2CCN(CCc3c[nH]c4ccccc34)CC2)nc1 [Example 54] | 7.52
FC(F)(F)c1ccnc(N2CCN(CCCc3c[nH]c4ccccc34)CC2)c1 [Example 33] | 6.98
Clc1ccc2[nH]cc(CCN3CCN(c4cccc(Cl)n4)CC3)c2c1 [Example 57] | 6.78
Clc1cccnc1N1CCN(CCc2c[nH]c3ccccc23)CC1 [Example 42] | 6.28
COc1cccnc1N1C[C@@H]2C[C@H]1CN2CCCc1c[nH]c2ccccc12 [Example 34] | 8.25
CC(Cc1c[nH]c2ccccc12)N1CCN(c2cccc(Cl)n2)CC1 (stereo not shown) [Example 36, 3-[2-[4-(6-Chloro-2-pyridyl)-1-piperazinyl]propyl]-indole] | 7.12
FC(F)(F)c1cccc(N2CCN(CCc3c[nH]c4ccc(Cl)cc34)CC2)n1 [Example 63] | 6.36
